Consider 40 molecules from patent US6855730B2, “3-methylidenyl-2-indolinone modulators of protein kinase” (Sugen, Inc., priority 1998, dated 2005).

The structures appear in SMILES notation.

T1 sequence (P04626 720-1255 limits assumed, change not shown): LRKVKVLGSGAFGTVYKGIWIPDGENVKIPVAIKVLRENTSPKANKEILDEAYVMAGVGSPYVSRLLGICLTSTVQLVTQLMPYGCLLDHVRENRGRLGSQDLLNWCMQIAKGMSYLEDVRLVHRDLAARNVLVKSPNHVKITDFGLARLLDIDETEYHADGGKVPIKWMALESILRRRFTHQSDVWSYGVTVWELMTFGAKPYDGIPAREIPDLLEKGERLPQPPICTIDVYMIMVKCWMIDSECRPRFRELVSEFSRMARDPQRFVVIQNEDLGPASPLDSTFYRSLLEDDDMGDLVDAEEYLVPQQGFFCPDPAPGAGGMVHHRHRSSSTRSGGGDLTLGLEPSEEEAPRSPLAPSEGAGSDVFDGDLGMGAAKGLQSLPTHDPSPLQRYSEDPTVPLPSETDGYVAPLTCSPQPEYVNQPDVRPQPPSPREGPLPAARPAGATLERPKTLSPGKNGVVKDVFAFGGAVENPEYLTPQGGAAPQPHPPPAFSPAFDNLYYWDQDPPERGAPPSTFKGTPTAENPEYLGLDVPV

This assay addresses T1, chimeric receptor containing the EGFR extracellular domain and intracellular HER2 kinase domain (Homo sapiens, UniProt P04626).
T1 construct: fused on or other part: EGFR ectodomain + HER2 intracellular part, ATP-site indolinones: HER2's kinase
Kind of assay: EGF Receptor-HER2 chimeric receptor assay in whole cells (ELISA). It counts as cell-based. The settings on record: read-out: HER-2 kinase IC50. The procedure, abridged:
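NIH3T3 cells overexpressing EGFR-extracellular/HER2-kinase chimera, seeded in 0.5% serum for ~40 h, were pretreated with compound (1% final DMSO) 2 h at 37 °C, then stimulated with 100 nM EGF for 5 min. Lysates captured on anti-EGFR plates; phosphotyrosine detected by anti-Ptyr/HRP ELISA at 410 nm as percent inhibition.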
For `O=C1Nc2ncccc2/C1=C\c1ccc2c(c1)CCO2` [Example 73, 3-(2,3-Dihydrobenzofuran-5-ylmethylene)-1,3-dihydropyrrolo[2,3-b]pyridin-2-one], the concentration for half-maximal inhibition (IC50) (commonly the concentration that gives 50% inhibition) is more than 50 µM.
Regarding `COc1cc(C=C2C(=O)Nc3ccccc32)c(-c2ccccc2OC)cc1OC` [Example 49, 3-(4,5,2′-Trimethoxybiphenyl-2-ylmethylene)-1,3-dihydroindol-2-one], the IC50 came to 65.5 µM.
To `COc1ccc(/C=C2\C(=O)Nc3cccc(C)c32)cc1C1CCCC1` [Example 48, 3-(3-Cyclopentyl-4-methoxybenzylidene)-4-methyl-1,3-dihydroindol-2-one] belongs 65 µM.
In the case of `COc1ccc(/C=C2/C(=O)Nc3ccccc32)cc1C1CCCC1` [Example 10, 3-(3-Cyclopentyl-4-methoxybenzylidene)-1,3-dihydroindol-2-one], the half-inhibitory concentration (IC50) is 45.8 µM.
On to `COc1ccc(/C=C2/C(=O)Nc3ccc(Cl)cc32)cc1C1CCCCC1` [Example 51, 5-Chloro-3-(3-cyclohexyl-4-methoxybenzylidene)-1,3-dihydroindol-2-one], for which the IC50 was found to be 71.8 µM.
`COc1c(C(C)C)cc(/C=C2/C(=O)Nc3ccc(C)cc32)cc1C(C)C` [Example 19, 3-(3,5-Diisopropyl-4-methoxybenzylidene)-5-methyl-1,3-dihydroindol-2-one]: the IC50 came out at 9.2 µM.
To `Cc1cccc2c1/C(=C/c1ccc3c(c1)CCC(C)(C)O3)C(=O)N2` [Example 41, 3-(2,2-Dimethylchroman-6-ylmethylene)-4-methyl-1,3-dihydroindol-2-one] belongs 39.8 µM; to `COc1cc(C)c(/C=C2/C(=O)Nc3ccc(F)cc32)cc1C(C)C` [Example 30, 5-Fluoro-3-(5-isopropyl-4-methoxy-2-methyl-benzylidene)-1,3-dihydroindol-2-one], 28 µM.
To `Cc1cccc2c1/C(=C/c1cc3ccccc3[nH]1)C(=O)N2` [Example 166, 3-(1H-indol-2-ylmethylene)-4-methyl-1,3-dihydro-indol-2-one] belongs more than 100 µM.
For `COc1ccc2c(c1)/C(=C\c1cc(C(C)C)c(OC)c(C(C)C)c1)C(=O)N2` [Example 17, 3-(3,5-Diisopropyl-4-methoxybenzylidene)-5-methoxy-1,3-dihydroindol-2-one] the value was 7.8 µM; for `COc1cc(C)c(/C=C2/C(=O)Nc3ccc(Br)cc32)cc1C(C)C` [Example 36, 5-Bromo-3-(5-isopropyl-4-methoxy-2-methyl-benzylidene)-1,3-dihydroindol-2-one], 20.7 µM.
Regarding `COc1c(C(C)C)cc(/C=C2/C(=O)Nc3ccc(C(C)=O)cc32)cc1C(C)C` [Example 5, 5-Acetyl-3-(3,5-diisopropyl-4-methoxybenzylidene)-1,3dihydroindol-2-one], the IC50 was 6.5 µM.
For `COc1ccc(/C=C2/C(=O)Nc3ccccc32)cc1C1CCCCC1` [Example 12, 3-(3-Cyclohexyl-4-methoxybenzylidene)-1,3-dihydroindol-2-one], the concentration for half-maximal inhibition (IC50) was more than 100 µM.
For `COc1ccccc1-c1ccc2c(c1)NC(=O)/C2=C\c1[nH]c(C)cc1CCC(=O)O` [Example 109, 3-{2-[6-(2-Methoxyphenyl)-2-oxo-1,2-dihydroindol-3-ylidenemethyl]-5-methyl-1H-pyrrol-3-yl}-propionic acid] the value was more than 100 µM.
`CC1(C)CCc2cc(/C=C3/C(=O)Nc4ccc(Cl)cc43)ccc2O1` [Example 15, 5-Chloro-3-(2,2-dimethyl-chroman-6-ylmethylene)-1,3-dihydroindol-2-one]: the IC50 worked out at 19 µM.
For `CCOC(=O)c1c(C)[nH]c(/C=C2\C(=O)Nc3cc(-c4ccccc4OC)ccc32)c1CCC(=O)O` [Example 110, 4-(2-Carboxyethyl)-5-[6-(2-methoxyphenyl)-2-oxo-1,2-dihydro-indol-3-ylidenemethyl]-2-methyl-1H-pyrrol-3-yl-carboxylic acid ethyl ester] the value was more than 100 µM; for `COc1ccc(/C=C2/C(=O)Nc3ncccc32)cc1C(C)C` [Example 70, 3-(3-Isopropyl-4-methoxybenzylidene)-1,3-dihydropyrrolo[2,3-b]pyridine-2-one], more than 100 µM.
To `COc1c(C)cc(/C=C2/C(=O)Nc3ccc(Cl)cc32)cc1C` [Example 21, 5-Chloro-3-(4-methoxy-3,5-dimethylbenzylidene)-1,3-dihydroindol-2-one] belongs 11.8 µM; to `CCOC(=O)c1c(C)[nH]c(/C=C2\C(=O)Nc3cc(-c4ccc(F)cc4)ccc32)c1CCC(=O)O` [Example 108, 4-(2-Carboxyethyl)-5-[6-(4-fluorophenyl)-2-oxo-1,2-dihydro-indol-3-ylidenemethyl]-2-methyl-1H-pyrrole-3-carboxylic acid ethyl ester], more than 100 µM.
Regarding `COc1cccc(-c2cc(OC)c(OC)cc2/C=C2/C(=O)Nc3ccc(Cl)cc32)c1` [Example 61, 5-Chloro-3-(4,5-3′-Trimethoxybiphenyl-2-ylmethylene)-1,3-dihydroindol-2-one], the IC50 is more than 100 µM.
To `COc1ccc(/C=C2/C(=O)Nc3cc(NC(C)=O)ccc32)cc1-c1ccsc1` [Example 18, N-[3-(4-Methoxy-3-thiophene-3-ylbenzylidene)-2-oxo-2,3-dihydro-1H-indol-6-yl]-acetamide] belongs 8.4 µM; to `COc1ccc(/C=C2/C(=O)Nc3ccc(F)cc32)cc1C1CCCCC1` [Example 43, 3-(3-Cyclohexyl-4-methoxybenzylidene)-5-fluoro-1,3-dihydroindol-2-one], 52.9 µM.
For `COc1ccc(/C=C2/C(=O)Nc3ccc(Cl)cc32)cc1-c1ccccc1` [Example 67, 5-Chloro-3-(6-methoxybiphenyl-3-ylmethylene)-1,3-dihydroindol-2-one] the value was more than 100 µM; for `COc1ccc(/C=C2/C(=O)Nc3ccc(F)cc32)cc1C(C)C` [Example 44, 5-Fluoro-3-(3-isopropyl-4-methoxybenzylidene)-1,3-dihydroindol-2-one], 53.6 µM; for `Cc1cccc2c1/C(=C/c1ccc3c(c1)CCO3)C(=O)N2` [Example 69, 3-(2,3-Dihydrobenzofuran-5-ylmethylene)-4-methyl-1,3-dihydroindol-2-one], more than 100 µM.
For the molecule `CC(=O)Nc1ccc2c(c1)NC(=O)/C2=C/c1ccc(OCCN2CCOCC2)c(C2CCCCC2)c1` [Example 16, N-{3-[3-Cyclohexyl-4-(2-morpholin-4-ylethoxy)-benzylidene]-2-oxo-2,3-dihydro-1H-indol-6-yl}-acetamide], the IC50 amounted to 9.9 µM.
For `COc1c(C(C)C)cc(/C=C2/C(=O)Nc3ccc(N)cc32)cc1C(C)C` [Example 20, 5-Amino-3-(3,5-diisopropyl-4-methoxy-benzylidene)-1,3-dihydroindol-2-one] the value was 38.6 µM; for `COC(=O)c1ccc2c(c1)/C(=C\c1cc(C(C)C)c(OC)c(C(C)C)c1)C(=O)N2` [Example 6, 3-(3,5-Diisopropyl-4-methoxybenzylidene)-2-oxo-2,3-dihydro-1H-indole-5-carboxylic acid methyl ester], 15.3 µM.
Take `CC(C)c1cc(/C=C2/C(=O)Nc3ccc(Br)cc32)cc(C(C)C)c1OCCN1CCOCC1` [Example 57, 5-Bromo-3-[3,5-diisopropyl-4-(2-morpholin-4-ylethoxy)benzylidene]-1,3-dihydroindol-2-one]: the IC50 was more than 100 µM.
To `COc1ccc(/C=C2/C(=O)Nc3ccc(Cl)cc32)cc1-c1cccnc1` [Example 60] belongs more than 100 µM; to `COc1ccc(/C=C2\C(=O)Nc3cccc(C)c32)cc1C(C)C` [Example 38, 3-(3-Isopropyl-4-methoxybenzylidene)-4-methyl-1,3-dihydroindol-2-one], 32.3 µM.
To `COc1ccc(/C=C2/C(=O)Nc3ccc(CCN4CCOCC4)cc32)cc1-c1ccsc1` [Example 26, 3-(4-Methoxy-3-thiophen-3-ylbenzylidene)-5-(2-morpholin-4-yl-ethyl)-1,3-dihydroindol-2-one] belongs 15.3 µM; to `COc1c(C(C)C)cc(/C=C2/C(=O)Nc3cc(F)ccc32)cc1C(C)C` [Example 22, 3-(3,5-Diisopropyl-4-methoxybenzylidene)-6-fluoro-1,3-dihydroindol-2-one], 12.4 µM; to `COc1ccc(/C=C2/C(=O)Nc3ccc(F)cc32)cc1-c1ccccc1` [Example 37, 5-Fluoro-3-(6-methoxybiphenyl-3-ylmethylene)-1,3-dihydroindol-2-one], 22.5 µM.
To `CCc1ccc2c(c1)/C(=C\c1cc(C(C)C)c(OC)c(C(C)C)c1)C(=O)N2` [Example 28, 3-(3,5-Diisopropyl-4-methoxbenzylidene)-5-ethyl-1,3-dihydroindol-2-one] belongs 16.9 µM.
As for `Cc1cc(CCC(=O)O)c(/C=C2\C(=O)Nc3cc(-c4ccc(F)cc4)ccc32)[nH]1` [Example 107, 3-{2-[6-(4-Fluorophenyl)-2-oxo-1,2-dihydroindol-3-ylidenemethyl]-5-methyl-1H-pyrrol-3-yl}propionic acid], the IC50 was more than 100 µM.
Take `COc1ccc(/C=C2/C(=O)Nc3ncccc32)cc1C1CCCCC1` [Example 72, 3-(3-Cyclohexyl-4-methoxybenzylidene)-1,3-dihydropyrrolo[2,3-b]pyridin-2-one]: the concentration for half-maximal inhibition (IC50) is more than 100 µM.
For `COc1ccc(/C=C2/C(=O)Nc3ccccc32)cc1-c1ccsc1` [Example 35, 3-(4-Methoxy-3-thiophen-3-ylbenzylidene)-1,3-dihydroindol-2-one], the IC50 amounted to 20.7 µM.
For `O=C1Nc2ccc(Cl)cc2/C1=C\c1ccc2c(c1)CCO2` [Example 14, 5-Chloro-3-(2,3-dihydro-benzofuran-5-ylmethylene)-1,3-dihydroindol-2-one] the value was 22.7 µM; for `CC(=O)Nc1ccc2c(c1)NC(=O)/C2=C\c1ccc2c(c1)CCC(C)(C)O2` [Example 33, N-[3-(2,2-Dimethylchroman-6-ylmethylene)-2-oxo-2,3-dihydro-1H-indol-6-yl]-acetamide], 20.2 µM.
